Reference: PubChem BioAssay (NCI)
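Where inhibition never reached the appropriate level, the endpoint shown equals the highest concentration tested. Otherwise, values were interpolated linearly from a five-concentration, 48-hour dose response in 96-well plates. TGI denotes the concentration required for complete inhibition of growth.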

Legend:
Test in all cases: NCI-60 cell line screen, 48 h
[1] = tested on: T-47D breast
[2] = tested on: HT29 colon
[3] = tested on: A498 renal
[4] = tested on: NCI-H23 lung
[5] = tested on: M14 melanoma
[6] = tested on: UACC-257 melanoma
[7] = tested on: SK-OV-3 ovarian
[8] = tested on: 786-0 renal
[9] = tested on: HOP-62 NSCLC
[10] = tested on: SR leukemia
[11] = tested on: HCT-15 colon
[12] = tested on: OVCAR-5 ovarian
[13] = tested on: NCI-H522 lung
[14] = tested on: OVCAR-4 ovarian
[15] = tested on: MOLT-4 leukemia
[16] = tested on: SNB-19 CNS
[17] = tested on: SK-MEL-2 melanoma
[18] = tested on: RXF 393 renal
[19] = tested on: MDA-MB-231 breast
[20] = tested on: SNB-75 CNS

Measured: TGI

O=C(Nc1cccc(F)c1)c1cc2ccc(O)cc2oc1=Nc1cccc(F)c1
13 µM: [13]
6.12 µM: [4]
32.4 µM: [15]
> 100 µM: [2] | [3] | [5] | [6] | [7] | [8] | [9] | [10] | [12] | [14] | [16] | [17]
60.1 µM: [11]
42.2 µM: [1]

CCOC(=O)c1cn2c(n1)sc1cc(OC)ccc12
> 100 µM: [3] | [4] | [5] | [6] | [19] | [7] | [20] | [8] | [9] | [12] | [13] | [14] | [15] | [16] | [17]
20.2 µM: [2]
> 55.3 µM: [11]
64.1 µM: [18]

Cc1cccc2oc3c(c(=O)c12)CC(O)C(C)(C)O3 (stereo unspecified)
> 100 µM: [1] | [2] | [3] | [4] | [5] | [18] | [6] | [7] | [8] | [9] | [10] | [11] | [12] | [14] | [16] | [17]
87.5 µM: [13]
83.2 µM: [15]

Cc1ccc(/C=C2\NC(=S)NC2=O)cc1
> 100 µM: [1] | [2] | [4] | [5] | [18] | [19] | [7] | [20] | [8] | [9] | [11] | [12] | [13] | [14] | [15] | [16] | [17]

CCOc1ccc(N=C(NC(=O)c2ccccc2)SC)cc1
> 100 µM: [2] | [3] | [4] | [5] | [18] | [6] | [7] | [20] | [8] | [9] | [10] | [11] | [12] | [14] | [15] | [16] | [17]

Clc1ccc(-c2cc(-c3cc4cc(Br)ccc4nc3Cl)on2)cc1
41.9 µM: [3]
47.3 µM: [15]
21.9 µM: [17]
37.9 µM: [5]
43.9 µM: [18]
21.8 µM: [13]
> 50 µM: [1] | [2] | [7] | [20] | [8] | [9] | [10] | [11] | [12] | [14] | [16]
46 µM: [6]
46.5 µM: [4]

CC(C)(C)OC(=O)N1NC(c2ccccc2)CC1c1ccccc1 (stereo unspecified)
58.8 µM: [5]
58.4 µM: [18]
74.4 µM: [3]
40.4 µM: [4]
> 100 µM: [2] | [6] | [7] | [8] | [9] | [10] | [12] | [13] | [15]
56.2 µM: [1]
76.7 µM: [20]
60.1 µM: [11]

O=c1c2c(-c3ccccc3)c3ccccc3nc2cnn1-c1ccccc1
> 100 µM: [2] | [3] | [4] | [5] | [18] | [6] | [7] | [20] | [8] | [9] | [10] | [11] | [12] | [13] | [14] | [15] | [16] | [17]

CC1(C)OC(=S)N(c2ccccc2)C12C=Cc1cc3ccccc3nc1S2 (stereo unspecified)
> 100 µM: [2] | [4] | [5] | [18] | [6] | [7] | [20] | [8] | [9] | [11] | [12] | [13] | [15] | [16] | [17]
80.1 µM: [10]

CC[C@@H](CCCCC1CC[C@H]2CC(=O)C[C@@H]12)OC (stereo partly specified)
> 100 µM: [2] | [3] | [4] | [5] | [18] | [6] | [19] | [7] | [20] | [8] | [9] | [10] | [11] | [12] | [13] | [14] | [15] | [16] | [17]

COc1cccc(-c2cc(=O)c3cc4c(cc3[nH]2)OCO4)c1
0.245 µM: [20]
21.9 µM: [9]
> 100 µM: [6] | [10] | [15]
8.25 µM: [11]
3.77 µM: [17]
1.15 µM: [7]
1.45 µM: [3]
3.02 µM: [12]
> 45.1 µM: [16]
10.2 µM: [8]
0.474 µM: [18]
2.37 µM: [2]
2.95 µM: [5]

O=C1NC(Nc2ccccc2)=N/C1=C\c1c(Cl)cccc1Cl
29.6 µM: [8]
42.3 µM: [20]
78.1 µM: [6]
25.5 µM: [14]
83.5 µM: [5]
49 µM: [17]
64.1 µM: [15]
49.7 µM: [7]
> 100 µM: [1] | [2] | [3] | [4] | [9] | [10] | [11] | [12] | [13] | [16]
45.3 µM: [18]

COC(=O)C(C(=O)C(=O)Nc1ccc(C)cc1C)c1csc(-n2nc(-c3ccccc3)cc2-c2ccccc2)n1 (stereo unspecified)
> 100 µM: [2] | [3] | [4] | [5] | [18] | [6] | [7] | [8] | [9] | [10] | [11] | [12] | [13] | [14] | [15] | [16]
52.6 µM: [20]
